The term Ki denotes a measure of affinity in units of concentration, obtained from inhibition or displacement. A word on the IC50: it is the concentration at which inhibition is half-maximal.

In experiment [1] the test system is SULT2A1 mRNA. In words: Real-time PCR, SULT2A1 mRNA expression in MCF-7 cells. It counts as cell-based, human. The note with it: 10 μM RES, 24 and 48 h, data not shown. The method, then:
MCF-7 breast cancer cells were seeded in 6-well plates at a density of 1.0 × 10^6 cells per well and allowed to attach overnight. […] Expression profiling of genes of interest was performed as detailed previously ([Mechtcheriakova et al., 2007]; [Meshcheryakova et al., 2016]). Upon treatment, total RNA was isolated using peqGOLD TriFAST^TM reagent (VWR, Vienna, Austria) according to the manufacturer’s protocol. 1 μg RNA was used for cDNA generation using the High Capacity cDNA Reverse Transcription Kit (Thermo Fisher Scientific, Inc.) according to the instructions of the manufacturer. Real-time PCR analysis was performed in the 96-well plate format on a QuantStudio 12K Flex Real-Time PCR System (Thermo Fisher Scientific, Inc.). SULT1A1 and SULT2A1 were detected using the corresponding TaqMan Assays (Thermo Fisher Scientific, Inc.). […] HKGs primers were self-designed using the Primer Express 3.0 software (Thermo Fisher Scientific, Inc.) and validated using the Human Total RNA Master Panel (TaKaRa Bio, Inc., Saint-Germain-en-Laye, France), as described before ([Mechtcheriakova et al., 2007], [2011]); Primers: UBC forward: […]; UBC reverse: […]; GAPDH forward: […]; GAPDH reverse: […]; ACTB forward: […]; ACTB reverse: […]. For relative quantification, data were analyzed by applying the ΔΔCT method. […]
In general terms: Quantitative PCR measures a nucleic acid by following its amplification.

Experiment [2] concerns the target estrogen sulfation, S9 fractions from human liver. Details: method as in Furimsky et al. (2008). The note with it: ref Furimsky et al. (2008), read-out: Ki, inhibition of estrogen sulfation; cited from earlier work.
The subject of experiment [3] is E2 levels. The arrangement: method as in El-Sayed and Bayan, 2015. The note with it: mice, 4 mg/kg i.p. for 7 days; ref El-Sayed and Bayan, 2015; cited from earlier work.
In experiment [4] the test system is serum E2 concentrations. Details: method as in Chow et al., 2014. The note with it: post-menopausal women, 1 g RES once a day for 12 weeks, non-significant; ref Chow et al., 2014; cited from earlier work.
Experiment [5] deals with MCF-7 cells. Kind of experiment: Cell proliferation, Casy cell counting, MCF-7. It counts as cell-based, human. Here is the method:
MDA-MB-231 and MCF-7 breast cancer cells were purchased from the American Type Culture Collection (ATCC; Manassas, VA, United States) and routinely cultivated at 37°C (95% humidity and 5% CO2) in phenolred-free Dulbecco’s modified Eagle medium F-12 (DMEM/F-12), fortified with 1% PenStrep®-solution and 10% fetal bovine serum (Invitrogen; Thermo Fisher Scientific, Inc., Waltham, MA, United States). All experiments were performed during the exponential growth phase of both cell lines. For the experiments, cells were seeded in 6-well-plates at a density of 1.0 × 10^6 cells per well and allowed to attach for 24 h.
Prior to cell counting with a Casy® TT Cell Counter (OLS OMNI Life Science, Bremen, Germany), the supernatant medium was removed and cells were detached using 400 μl TrypLe® solution (Invitrogen). All experiments were performed in triplicate, and the data were reported as the means ± standard deviation of all values.

The subject of experiment [6] is SULT1A1 mRNA. Kind of experiment: Real-time PCR, SULT1A1 mRNA expression in MCF-7 cells. It counts as cell-based, human. The note with it: 10 μM RES; for down-regulation of SULT1A1 mRNA: non-significant. Here is the method:
MCF-7 breast cancer cells were seeded in 6-well plates at a density of 1.0 × 10^6 cells per well and allowed to attach overnight. […] Expression profiling of genes of interest was performed as detailed previously ([Mechtcheriakova et al., 2007]; [Meshcheryakova et al., 2016]). Upon treatment, total RNA was isolated using peqGOLD TriFAST^TM reagent (VWR, Vienna, Austria) according to the manufacturer’s protocol. 1 μg RNA was used for cDNA generation using the High Capacity cDNA Reverse Transcription Kit (Thermo Fisher Scientific, Inc.) according to the instructions of the manufacturer. Real-time PCR analysis was performed in the 96-well plate format on a QuantStudio 12K Flex Real-Time PCR System (Thermo Fisher Scientific, Inc.). SULT1A1 and SULT2A1 were detected using the corresponding TaqMan Assays (Thermo Fisher Scientific, Inc.). […] HKGs primers were self-designed using the Primer Express 3.0 software (Thermo Fisher Scientific, Inc.) and validated using the Human Total RNA Master Panel (TaKaRa Bio, Inc., Saint-Germain-en-Laye, France), as described before ([Mechtcheriakova et al., 2007], [2011]); Primers: UBC forward: […]; UBC reverse: […]; GAPDH forward: […]; GAPDH reverse: […]; ACTB forward: […]; ACTB reverse: […]. For relative quantification, data were analyzed by applying the ΔΔCT method. Expression levels of target genes were normalized to the average of the HKGs and shown relative to unstimulated cells (0 h time-point).

For `Oc1ccc(/C=C/c2cc(O)cc(O)c2)cc1` [RES, 3,5,4′-trihydroxy-trans-stilbene], the “effect on SULT2A1 expression” value in experiment [1] is “marginally down-regulated”. For the same molecule, the Ki in experiment [2] is 1.1 µM. Moreover, the “increase in E2 levels” value in experiment [3] is given as “approximately twofold increase”. Moreover, the “increase in serum E2 concentrations” value in experiment [4] is 22.4%. Also, the “increase in cell counts on co-incubation” value in experiment [5] (5 μM RES + 100 nM E1, 48 h, vs control without E1) was “twofold increase in cell counts”. The cell number in experiment [5] (5 μM RES, 48 h) is recorded as 2.92 ± 0.16 × 10^6 cells; in experiment [5] (100 μM RES, 48 h) it was 1.08 ± 0.11 × 10^6 cells. Besides, the “effect on cellular proliferation” value in experiment [5] (10 μM RES, 48 h) is given as “no effect”. In addition, the Emax at 5 µM in experiment [5] (Homo sapiens, MCF7, 48 h, read-out: stimulation of cellular growth (maximal effect)) worked out at 21.2 ± 3.3%. Moreover, the concentration for half-maximal inhibition (IC50) in experiment [5] (Homo sapiens, MCF7, MCF-7, 48 h, steroid-deprived, read-out: IC50 (inhibition of cell growth)) amounted to 37.4 ± 14.5 µM. Moreover, the figures for the “down-regulation of SULT1A1 mRNA” value in experiment [6] (24 h) and in experiment [6] (48 h) were 23.6 ± 13.0% and 30.4 ± 11.0%, respectively. In addition, the “effect on transcription of SULT1A1” value in experiment [6] (up to 4 h) is given as “did not affect”.

Source of the values: paper PMC6048268, “Resveratrol Inhibits Key Steps of Steroid Metabolism in a Human Estrogen-Receptor Positive Breast Cancer Model: Impact on Cellular Proliferation” (Frontiers in Pharmacology, 2018).
